Test results taken from paper PMC7761077, “Differential Effects of Cancer-Associated Mutations Enriched in Helix H3 of PPARγ” (Cancers, 2020).

Key:
PPARγ LBD R288C = target: T1, PPARγ LBD R288C (Homo sapiens, UniProt P37231, R316C); experiment: ITC binding of endogenous ligands to PPARγ LBD R288C; settings: PBS pH 7.2, 25 °C, ligand 0.9 mM
T1 construct: PPARγ LBD (residues 195–477 in PPARγ1 numbering) was cloned into the expression vector pET-28b(+); made in house; host or cells: Escherichia coli Rosetta 2(DE3)
T1 sequence (P37231 195-477 isoform P37231-2 R288C): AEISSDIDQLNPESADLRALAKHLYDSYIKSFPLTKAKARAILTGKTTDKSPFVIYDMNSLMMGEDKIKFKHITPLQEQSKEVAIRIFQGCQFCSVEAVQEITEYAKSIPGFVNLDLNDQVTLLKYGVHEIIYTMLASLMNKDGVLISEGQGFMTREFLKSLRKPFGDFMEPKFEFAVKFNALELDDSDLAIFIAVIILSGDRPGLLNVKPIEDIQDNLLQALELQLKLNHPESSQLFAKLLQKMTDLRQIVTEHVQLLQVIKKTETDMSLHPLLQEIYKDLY
Procedure: (§1) Since PPARγ is physiologically regulated by endogenous ligands, it is possible that the activation of PPARγ mutants would be induced upon binding to known endogenous PPARγ ligands. […] […]. […] […].
(§2) All the measurements were conducted in the buffer of PBS pH 7.2 at 25 °C. The ligands filled in the syringe were titrated into the proteins in the cell using 19 injections of 2 μL and an initial injection of 0.4 μL with 150 s equilibration between injections. The final protein concentrations of PPARγ LBD WT and mutants were 60 μM for 15d-PGJ2 at the ligand concentration of 900 μM and 45 μM for 13S-HODE at the ligand concentration of 900 μM, respectively. The obtained data were analyzed using Origin 7.0 software.

PPARγ LBD WT = target: T2, PPARγ LBD WT (Homo sapiens, UniProt P37231); experiment: ITC binding of endogenous ligands to PPARγ LBD WT; settings: PBS pH 7.2, 25 °C, ligand 0.9 mM
T2 construct: PPARγ LBD (residues 195–477 in PPARγ1 numbering) was cloned into the expression vector pET-28b(+); made in house; host or cells: Escherichia coli Rosetta 2(DE3)
T2 sequence (P37231 195-477 isoform P37231-2): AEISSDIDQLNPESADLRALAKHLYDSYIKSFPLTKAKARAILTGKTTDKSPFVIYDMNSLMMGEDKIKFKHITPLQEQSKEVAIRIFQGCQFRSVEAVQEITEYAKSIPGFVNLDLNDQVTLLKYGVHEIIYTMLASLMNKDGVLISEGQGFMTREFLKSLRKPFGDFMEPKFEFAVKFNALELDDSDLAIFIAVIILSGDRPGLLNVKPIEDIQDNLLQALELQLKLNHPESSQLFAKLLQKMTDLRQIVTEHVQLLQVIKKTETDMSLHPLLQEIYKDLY
Procedure: as §1, §2

PPARγ LBD R288H = target: T3, PPARγ LBD R288H (Homo sapiens, UniProt P37231, R316H); experiment: ITC binding of endogenous ligands to PPARγ LBD R288H; settings: PBS pH 7.2, 25 °C, ligand 0.9 mM
T3 construct: PPARγ LBD (residues 195–477 in PPARγ1 numbering) was cloned into the expression vector pET-28b(+); made in house; host or cells: Escherichia coli Rosetta 2(DE3)
T3 sequence (P37231 195-477 isoform P37231-2 R288H): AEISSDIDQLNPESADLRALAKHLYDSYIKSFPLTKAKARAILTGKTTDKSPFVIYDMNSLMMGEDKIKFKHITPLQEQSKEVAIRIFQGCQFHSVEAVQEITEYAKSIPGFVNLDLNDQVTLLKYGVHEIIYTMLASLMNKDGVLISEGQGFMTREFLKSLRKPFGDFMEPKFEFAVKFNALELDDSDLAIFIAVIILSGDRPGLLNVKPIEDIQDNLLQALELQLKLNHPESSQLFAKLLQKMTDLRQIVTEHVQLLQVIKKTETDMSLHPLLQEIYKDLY
Procedure: as §1, §2

PPARγ LBD Q286P = target: T4, PPARγ LBD Q286P (Homo sapiens, UniProt P37231, Q314P); experiment: ITC binding of endogenous ligands to PPARγ LBD Q286P; settings: PBS pH 7.2, 25 °C, ligand 0.9 mM
T4 construct: PPARγ LBD (residues 195–477 in PPARγ1 numbering) was cloned into the expression vector pET-28b(+); made in house; host or cells: Escherichia coli Rosetta 2(DE3)
T4 sequence (P37231 195-477 isoform P37231-2 Q286P): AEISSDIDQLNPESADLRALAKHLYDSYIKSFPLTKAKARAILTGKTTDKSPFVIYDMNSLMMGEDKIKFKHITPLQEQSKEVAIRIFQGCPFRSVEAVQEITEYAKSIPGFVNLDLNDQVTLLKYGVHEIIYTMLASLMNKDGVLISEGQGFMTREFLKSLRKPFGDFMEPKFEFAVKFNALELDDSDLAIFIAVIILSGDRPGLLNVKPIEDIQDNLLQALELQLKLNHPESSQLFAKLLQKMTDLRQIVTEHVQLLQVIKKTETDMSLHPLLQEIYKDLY
Procedure: as §1, §2

PPARγ LBD S289C = target: T5, PPARγ LBD S289C (Homo sapiens, UniProt P37231, S317C); experiment: ITC binding of endogenous ligands to PPARγ LBD S289C; settings: PBS pH 7.2, 25 °C, ligand 0.9 mM
T5 construct: PPARγ LBD (residues 195–477 in PPARγ1 numbering) was cloned into the expression vector pET-28b(+); made in house; host or cells: Escherichia coli Rosetta 2(DE3)
T5 sequence (P37231 195-477 isoform P37231-2 S289C): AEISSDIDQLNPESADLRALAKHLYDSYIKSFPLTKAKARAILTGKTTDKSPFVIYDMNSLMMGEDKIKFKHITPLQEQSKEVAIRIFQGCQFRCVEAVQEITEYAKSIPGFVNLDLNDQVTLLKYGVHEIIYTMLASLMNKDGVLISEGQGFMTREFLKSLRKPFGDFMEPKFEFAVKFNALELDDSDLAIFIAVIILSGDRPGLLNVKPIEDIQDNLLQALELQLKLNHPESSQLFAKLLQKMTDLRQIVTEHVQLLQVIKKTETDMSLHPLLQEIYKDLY
Procedure: as §1, §2

PPARγ LBD C285Y = target: T6, PPARγ LBD C285Y (Homo sapiens, UniProt P37231, C313Y); experiment: ITC binding of endogenous ligands to PPARγ LBD C285Y; settings: PBS pH 7.2, 25 °C, ligand 0.9 mM
T6 construct: PPARγ LBD (residues 195–477 in PPARγ1 numbering) was cloned into the expression vector pET-28b(+); made in house; host or cells: Escherichia coli Rosetta 2(DE3)
T6 sequence (P37231 195-477 isoform P37231-2 C285Y): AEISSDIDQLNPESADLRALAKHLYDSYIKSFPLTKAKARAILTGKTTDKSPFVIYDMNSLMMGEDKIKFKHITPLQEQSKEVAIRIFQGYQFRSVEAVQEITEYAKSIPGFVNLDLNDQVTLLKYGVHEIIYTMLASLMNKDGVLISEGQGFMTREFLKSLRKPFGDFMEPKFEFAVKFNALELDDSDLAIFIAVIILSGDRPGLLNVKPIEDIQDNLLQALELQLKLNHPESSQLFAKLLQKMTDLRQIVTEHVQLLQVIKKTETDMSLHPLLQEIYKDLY
Procedure: as §1, §2

PPARγ LBD F287Y = target: T7, PPARγ LBD F287Y (Homo sapiens, UniProt P37231, F315Y); experiment: ITC binding of endogenous ligands to PPARγ LBD F287Y; settings: PBS pH 7.2, 25 °C, ligand 0.9 mM
T7 construct: PPARγ LBD (residues 195–477 in PPARγ1 numbering) was cloned into the expression vector pET-28b(+); made in house; host or cells: Escherichia coli Rosetta 2(DE3)
T7 sequence (P37231 195-477 isoform P37231-2 F287Y): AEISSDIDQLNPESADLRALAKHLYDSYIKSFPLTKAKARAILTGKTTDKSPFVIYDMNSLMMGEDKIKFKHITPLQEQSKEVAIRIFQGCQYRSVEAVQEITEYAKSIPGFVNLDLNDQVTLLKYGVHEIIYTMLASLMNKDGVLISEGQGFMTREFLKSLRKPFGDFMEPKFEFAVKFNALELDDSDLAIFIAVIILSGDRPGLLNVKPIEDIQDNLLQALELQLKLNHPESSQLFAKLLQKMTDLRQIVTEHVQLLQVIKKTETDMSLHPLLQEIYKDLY
Procedure: as §1, §2

PPARγ LBD Q286E = target: T8, PPARγ LBD Q286E (Homo sapiens, UniProt P37231, Q314E); experiment: ITC binding of endogenous ligands to PPARγ LBD Q286E; settings: PBS pH 7.2, 25 °C, ligand 0.9 mM
T8 construct: PPARγ LBD (residues 195–477 in PPARγ1 numbering) was cloned into the expression vector pET-28b(+); made in house; host or cells: Escherichia coli Rosetta 2(DE3)
T8 sequence (P37231 195-477 isoform P37231-2 Q286E): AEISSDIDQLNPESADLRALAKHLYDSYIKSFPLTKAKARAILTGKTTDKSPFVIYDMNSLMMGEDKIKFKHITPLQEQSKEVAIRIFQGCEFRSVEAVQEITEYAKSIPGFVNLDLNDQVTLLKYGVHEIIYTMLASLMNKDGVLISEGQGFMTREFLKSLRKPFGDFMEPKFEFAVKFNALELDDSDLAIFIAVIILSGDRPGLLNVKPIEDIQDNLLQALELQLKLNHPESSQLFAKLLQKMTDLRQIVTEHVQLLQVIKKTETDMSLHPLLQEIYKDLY
Procedure: as §1, §2

PPARγ LBD R280C = target: T9, PPARγ LBD R280C (Homo sapiens, UniProt P37231, R308C); experiment: ITC binding of endogenous ligands to PPARγ LBD R280C; settings: PBS pH 7.2, 25 °C, ligand 0.9 mM
T9 construct: PPARγ LBD (residues 195–477 in PPARγ1 numbering) was cloned into the expression vector pET-28b(+); made in house; host or cells: Escherichia coli Rosetta 2(DE3)
T9 sequence (P37231 195-477 isoform P37231-2 R280C): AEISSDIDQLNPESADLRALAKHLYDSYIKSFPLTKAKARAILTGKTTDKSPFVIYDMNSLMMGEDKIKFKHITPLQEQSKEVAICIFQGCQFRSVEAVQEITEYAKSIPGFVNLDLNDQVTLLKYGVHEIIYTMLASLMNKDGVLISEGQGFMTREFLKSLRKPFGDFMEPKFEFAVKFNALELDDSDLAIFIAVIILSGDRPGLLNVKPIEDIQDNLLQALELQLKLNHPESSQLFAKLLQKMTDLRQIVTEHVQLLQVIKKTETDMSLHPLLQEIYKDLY
Procedure: as §1, §2

[1] = target: MED1 co-activator peptide containing the LXXLL motif; experiment: SPR; MED1 peptide amine-coupled to a CM5 chip (about 60 RU); PPARγ LBD WT or mutant injected at 78 nM to 10 μM, 30 μL/min, 120 s, dissociation 400 s; Biacore T200, 25 °C; 50 mM Tris-HCl pH 7.5, 150 mM NaCl, 1 mM TCEP, 0.005% tween 20; 1:1 Langmuir model

Row | Kd [1] [µM] | Molecule | Kd (PPARγ LBD R288C) [µM] | Kd (PPARγ LBD WT) [µM] | Kd (PPARγ LBD R288H) [µM] | Kd (PPARγ LBD Q286P) [µM] | Kd (PPARγ LBD S289C) [µM] | Kd (PPARγ LBD C285Y) [µM] | Kd (PPARγ LBD F287Y) [µM] | Kd (PPARγ LBD Q286E) [µM] | Kd (PPARγ LBD R280C) [µM]
1 |  | CCCCC[C@H](O)/C=C/C=C\CCCCCCCC(=O)O [13S-HODE, 13S-hydroxy-9Z,11E-octadecadienoic acid] | > 201 | 14.6 | 67.1 | > 201 | > 201 | 42.7 | 27.7 | 45.9 | > 201
2 |  | CCCCCC=CC=C1C(=O)C=C[C@@H]1CC=CCCCC(=O)O [15d-PGJ2, 15-deoxy-∆^12,14-prostaglandin J2] |  | 51 | > 201 | 201 | 42.9 | 162 | 65.3 |  | > 201
3 | 5.61 | PPARγ LBD Q286E (from UniProt P37231-2 195-477) (domain or fragment) |  |  |  |  |  |  |  |  | 
